{
  "source": "patent US12433854B2",
  "about": "“Methods and compositions for preventing or treating calciphylaxis” (Epizon Pharma, Inc., priority 2018, dated 2025)",
  "key": {"[1]": {"test_system": "subjects with ESRD receiving hemodialysis", "assay": "MK-7 in subjects with stable ESRD receiving hemodialysis: biomarker changes day 1 to day 15", "assay_type": "in vivo, human", "details": "10 mg capsule of MK-7 per day orally for 14 days; change between day 1 and day 15", "description": "This example describes the administration of MK-7 to subjects with ESRD receiving hemodialysis, and who are at risk of developing calciphylaxis. Administration of MK-7 can result in a change in certain biomarker levels indicative of the prevention of the development of calciphylaxis, or in the arrest or slowing down of the development of calciphylaxis. A number of subjects with stable ESRD but without calciphylaxis are enrolled in the study, whereupon the subjects orally receive a 10 mg capsule of MK-7 per day for 14 days. The levels of certain biomarkers, including uncarboxylated Matrix Gla Protein (MGP), uncarboxylated osteocalcin, osteoprotegerin, Fetuin A and hs-CRP were assessed on day 1 and on day 15 (the end of treatment), and the changes between day 1 and day 15 were calculated."}, "[2]": {"test_system": "adult hemodialysis patients", "details": "cited from earlier work"}, "[3]": {"test_system": "subjects at risk of development of calciphylaxis", "assay": "MK-7 and/or MKH2-7 in subjects at risk for development of calciphylaxis (Example 1)", "assay_type": "in vivo, human", "details": "10 mg, 25 mg or 50 mg orally once daily; blood samples; contemplated", "from_the_text": "This example describes the administration of MK-7 and/or MKH2-7 to subjects at risk for development of calciphylaxis, but who have not yet developed the characteristic skin lesions of calciphylaxis. Risk factors to be considered include, but are not limited to, diabetes mellitus, obesity, ESRD and/or hemodialysis, and prior treatment with warfarin (Nigwekar et al. (2016), supra). It is contemplated that administration of MK-7 and/or MKH2-7 can result in protection of the subjects from skin lesions and a change in certain biomarker levels indicative of the prevention of the development of calciphylaxis.\n(§1) Subjects at risk of development of calciphylaxis orally receive MK-7 and/or MKH2-7 at 10 mg, 25 mg or 50 mg once daily for at least 2 weeks, 4 weeks, 6 weeks, 8 weeks, 3 months, 6 months, 1 year, or indefinitely. The dosage form is a 10 mg or 25 mg soft-gel capsule. Two 25 mg capsules are be administered once daily to the 50 mg dosage cohort.\nIt should be noted that not all subjects with elevated risk factors for calciphylaxis will develop the characteristic skin lesions of calciphylaxis. The intent of treating with MK-7 and/or MKH2-7 proactively (prior to a clinical diagnosis of calciphylaxis) is the prevention of lesion appearance. Thus, a drop in frequency of, or elimination of lesion appearances is contemplated to be a successful treatment.\nSeveral biomarkers can be assessed to determine the efficacy of MK-7 and/or MKH2-7 at the three dose levels. Exemplary biomarkers include PIVKA-II; uncarboxylated and total Matrix Gla Protein (MGP); uncarboxylated, carboxylated and total osteocalcin protein; uncarboxylated, carboxylated and total Protein C, osteoprotegerin, Fetuin A and hs-CRP.\nBlood samples are obtained to measure the biomarkers according to the following schedule. Blood sampling can occur during treatment on a weekly or monthly basis. It is contemplated that administration of MK-7 and/or MKH2-7 will result in (i) an increase in PIVKA-II, osteoprotegerin, or Fetuin A, which is indicative of slowing the progression of, arresting, or reversing, calciphylaxis, (ii) a decrease in uncarboxylated MGP, uncarboxylated osteocalcin, and/or uncarboxylated Protein C, which is indicative of slowing the progression of, arresting, or reversing calciphylaxis.\nFurther, pulse wave velocity (PWV) can be measured to assess arterial compliance. Improved vascular compliance will be indicative of slowing the progression of, arresting, or reversing calciphylaxis."}, "osteocalcin": {"test_system": "osteocalcin", "details": "100-200 μg/d for 4 to 12 weeks; significantly and in a dose-dependent manner; cited from earlier work"}, "[4]": {"test_system": "subjects diagnosed with calciphylaxis", "assay": "MK-7 and/or MKH2-7 in subjects diagnosed with calciphylaxis (Example 2)", "assay_type": "in vivo, human", "details": "10 mg, 25 mg or 50 mg orally once daily; contemplated", "from_the_text": "This example describes the administration of MK-7 and/or MKH2-7 to subjects diagnosed with calciphylaxis. Typical symptoms include presentation of characteristic painful skin lesions (Nigwekar et al. (2015) “Calciphylaxis: Risk Factors, Diagnosis, and Treatment.” Am. J. Kidney Dis. 66:133-46). Definitive diagnosis of calciphylaxis is achieved via skin biopsy (Nigwekar, 2015 supra). Further conditions need to be considered for correct diagnosis (Id.).\nas §1, with “diagnosed with” for “at risk of development of”, “are” for “are be”\nThe arrest of, or decreases in lesion size and frequency is contemplated to be an indication of successful treatment.\nAdditionally, because calciphylaxis has a considerable mortality risk, increased overall survival time of diagnosed subjects will be an indication of treatment success. It is contemplated that administration of MK-7 and/or MKH2-7 according to the foregoing will result in an increased overall survival time of diagnosed subjects."}, "[5]": {"details": "vitamin K2 supplementation, hemodialysis patients"}},
  "note": "Read-outs that look alike come from different tables or passages of the source.",
  "data": [
    {"compound": "CC(C)=CCC/C(C)=C/CC/C(C)=C/CC/C(C)=C/CC/C(C)=C/CC/C(C)=C/CC/C(C)=C/CC1=C(C)C(=O)c2ccccc2C1=O", "note": "[MK-7, 2-[(2E,6E,10E,14E,18E,22E)-3,7,11,15,19,23,27-heptamethyloctacosa-2,6,10,14,18,22,26-heptaenyl]-3-methylnaphthalene-1,4-dione]", "values": [
      {"measurement": "average increase in Fetuin A", "setting": "[1]", "result": 23.1, "unit": "%"},
      {"measurement": "average increase in osteoprotegerin", "setting": "[1]", "result": 14.5, "unit": "%"},
      {"measurement": "average reduction in hs-CRP", "setting": "[1]", "result": "−35.8", "unit": "%"},
      {"measurement": "average reduction in uncarboxylated MGP", "setting": "[1]", "result": "−21.9", "unit": "%"},
      {"measurement": "average reduction in uncarboxylated osteocalcin", "setting": "[1]", "result": "−55.5", "unit": "%"},
      {"measurement": "response rate in the reduction in dp-ucMGP levels", "setting": "[2]; group receiving 135 μg of menaquinone-7", "result": 77, "unit": "%"},
      {"measurement": "response rate in the reduction in dp-ucMGP levels", "setting": "[2]; group receiving 360 μg of menaquinone-7", "result": 93, "unit": "%"},
      {"measurement": "Fetuin A", "setting": "[3]", "result": "increase"},
      {"measurement": "PIVKA-II", "setting": "[3]", "result": "increase"},
      {"measurement": "osteoprotegerin", "setting": "[3]", "result": "increase"},
      {"measurement": "uncarboxylated MGP", "setting": "[3]", "result": "decrease"},
      {"measurement": "uncarboxylated Protein C", "setting": "[3]", "result": "decrease"},
      {"measurement": "uncarboxylated osteocalcin", "setting": "[3]", "result": "decrease"},
      {"measurement": "ratio of carboxylated to undercarboxylated osteocalcin", "setting": "osteocalcin", "result": "increase"},
      {"measurement": "overall survival time of diagnosed subjects", "setting": "[4]", "result": "increased"}
    ]},
    {"compound": "CC(C)=CCC/C(C)=C/CC/C(C)=C/CC/C(C)=C/CC/C(C)=C/CC/C(C)=C/CC/C(C)=C/Cc1c(C)c(O)c2ccccc2c1O", "note": "[MKH2-7, 2-[(2E,6E,10E,14E,18E,22E)-3,7,11,15,19,23,27-heptamethyloctacosa-2,6,10,14,18,22,26-heptaenyl]-3-methylnaphthalene-1,4-diol]", "values": [
      {"measurement": "Fetuin A", "setting": "[3]", "result": "increase"},
      {"measurement": "PIVKA-II", "setting": "[3]", "result": "increase"},
      {"measurement": "osteoprotegerin", "setting": "[3]", "result": "increase"},
      {"measurement": "uncarboxylated MGP", "setting": "[3]", "result": "decrease"},
      {"measurement": "uncarboxylated Protein C", "setting": "[3]", "result": "decrease"},
      {"measurement": "uncarboxylated osteocalcin", "setting": "[3]", "result": "decrease"},
      {"measurement": "overall survival time of diagnosed subjects", "setting": "[4]", "result": "increased"}
    ]},
    {"compound": "Vitamin K2", "values": [
      {"measurement": "circulating PIVKA-II levels", "setting": "[2]; [5]", "result": "dose- and time-dependent decrease"},
      {"measurement": "circulating dp-ucMGP levels", "setting": "[2]; [5]", "result": "dose- and time-dependent decrease"},
      {"measurement": "circulating uncarboxylated osteocalcin levels", "setting": "[2]; [5]", "result": "dose- and time-dependent decrease"}
    ]}
  ]
}
